Data taken from article PMC7719495 (BioMed Research International, 2020).
Each block holds one molecule with its values, some of them ahead of it.

Assays:
[1] = test system: plasma protein; parameters: method as in earlier work; details: cited from earlier work
[2] = test system: mice brain capillary endothelial cells (BCECs); assay: AMPB uptake by BCECs, HPLC; assay type: cell-based; details: 30, 60, 120, 180 min, compared with AMPB group
Procedure: The mice brain capillary endothelial cells (BCECs, cat. no. BNCC35187) were purchased from Beijing Beina Chuanglian Biotechnology Research Institute (Beijing, China). BCECs were resuscitated in a constant temperature water bath at 37°C and then inoculated in a petri dish. The cells were cultured with the 1640 medium containing 10% FBS in a 5% CO2 cell incubator at 37°C. The culture medium was changed every other day, and the cells were digested with 0.25% trypsin when they converged and proliferated to form a full layer at the bottom of the dish. 1 mL cell suspensions were seeded in 12-well plates at a density of 1 × 10^5 cells/mL per well. The drug was administered after the cells being completely adherent to the wall. 2.16 μM AMBP solution was prepared with the 1640 medium and then was used to prepare POS solution at concentrations of 2.85 μM, 5.71 μM, and 11.42 μM, 5 μM zosuquidar, 5 μM Ko143, 1 mM elacridar, and 40 g/L albumin solution, respectively.
The cells were randomly divided into the following 8 groups: 2.16 μM AMBP, 2.16 μM AMBP+POS (2.85 μM, 5.71 μM, and 11.42 μM), 2.16 μM AMBP+5 μM zosuquidar, 2.16 μM AMBP+5 μM Ko143, 2.16 μM AMBP+1 mM elacridar, and 2.16 μM AMBP+40 g/L albumin. Three wells were set at each time point in each group and cultured at 37°C. Cell samples were collected at 30 min, 60 min, 120 min, and 180 min after drug administration, respectively. BCECs were eluted with Hanks' balanced salt solution for 3 times and then incubated with 1% Triton X-100 (200 μL/per well) at 4°C for 12 h to lyse the cells.

[3] = HPLC analysis of the content of AMPB in mice plasma and brain tissue; assay type: in vivo, KM mice; details: compared with AMPB group; AMPB 3 mg/kg iv q.d.; POS 90 mg/kg gavage, zosuquidar 20 mg/kg, Ko143 10 mg/kg, elacridar 2.5 mg/kg iv, b.i.d. 4 days; 4 h after last administration
Procedure: POS, zosuquidar, Ko143, and elacridar were administered for 4 consecutive days (b.i.d., 9 a.m. and 9 p.m).
4 h after the last administration, the mouse eyeball was taken for blood sample acquisition, in a commercial 1.5 mL centrifuge tube containing the anticoagulant EDTA, with sterilized ophthalmic bending forceps. Samples were centrifuged at 3000 rpm for 10 min. And the bottom plasma was gently extracted and separated with micropipeter. Then, plasma proteins were precipitated by adding 300 μL methanol to 100 μL plasma, followed by vortex for 10 s and let it stand for 5 min. After that, the samples were centrifuged at 4°C, 13000 rpm, for 10 min. Finally, the plasma test solution was fulfilled by filtering it through the 0.22 μm microporous membrane.
After the completion of blood, the mice brain was quickly removed. Moderate brain tissue samples were mixed with physiological saline for homogenate preparation. And proteins were precipitated by adding 300 μL methanol to 100 μL homogenate, followed by vortex for 10 s, and let it stand for 5 min, and then centrifuged at 4°C, 13000 rpm, for 10 min. Finally, the brain test solution was fulfilled by filtering it through the 0.22 μm microporous membrane. […] The analytical column was a Diamonsil (2) C18 column (250 mm ×4.6 mm, 5 μm) maintained at 30°C. The mobile phase consisted of 10 mM ammonium acetate aqueous solution (PH4) and acetonitrile, with the flow rate of 1.0 mL/min and the injection volume of 50 μL.

[4] = test system: Cryptococcus neoformans; assay: H&E staining of brain pathology in mice with cryptococcal meningitis; assay type: in vivo; details: AMPB 3 mg/kg, POS 180 mg/kg, 14 days, compared with model group
Procedure: Except the control group, the mice in the other four groups were all injected with the lateral ventricular cryptococcus suspension at the dose of 1 × 10^8 CFU/mL, 5 μL for each mouse [19]. And the control group was injected with the same volume of normal saline. […] After 5 days, mice in each group were administered with the corresponding drugs mentioned above, continuously for 14 days. […] The mice were then anesthetized with ether for 24 h after the last administration. Next, the brain tissue was promptly removed for H&E staining and colonization detection of Cryptococcus neoformans. The mouse brain tissue was fixed with 4% paraformaldehyde at 25°C for 24 h, followed by washing with running water for 0.5 h [20, 21]. The brain was then dehydrated with 75%, 85%, 95%, and anhydrous ethanol for 6 h, 10 h, 4 h, and 2 h, respectively. After permeabilization with xylene I for 20 min and xylene II for 15 min, the brain was embedded in paraffin for 3 h and then cut into 5 μm slices using a microtome (RM2235, Leica Biosystems, Wetzlar, Germany) and roasted at 60°C. After dewaxing with xylene, the slices were stained with hematoxylin and eosin. Random photographs of three fields were acquired using a CX22 light microscope at ×400 magnification (Olympus Corporation, Tokyo, Japan).

[5] = test system: plasma protein; assay: Ultrafiltration analysis of free AMPB in in vitro plasma; assay type: in vitro ADME; details: 37°C, 2 h, p < 0.0001 vs AMPB group
Procedure: (§1) The equilibrium dialysis experiments were performed by the Thermo Fisher Scientific rapid equilibrium dialysis (RED) device. […] The prepared sample solutions were added into the holes of RED plate, respectively, with a 300 μL sample loading. In the corresponding buffer holes, 550 μL, 1% Triton X-100 solution was added. After the sample loading was completed, the sample was put into a 37°C constant temperature oscillator, and the dialysis was balanced at 100 rpm for 6 h. […] And then, the protein or drug-protein complexes with a molecular weight ≥ […] were retained by adding 1 mL of drug-containing plasma mixture into the Centrifree® overfiltration unit and centrifuging it at 13000 rpm and 4°C for 20 min.

[6] = test system: plasma protein; assay: Balanced (equilibrium) dialysis of free AMPB in in vitro plasma; assay type: in vitro ADME, mouse; details: 37°C, 6 h
Procedure: as §1

[7] = test system: Cryptococcus neoformans; assay: Counting of Cryptococcus neoformans colonies in the brain tissue; assay type: in vivo; details: cryptococcal meningitis mice; AMPB 3 mg/kg, POS 180 mg/kg, 14 days; p < 0.01 compared with model group
Procedure: Except the control group, the mice in the other four groups were all injected with the lateral ventricular cryptococcus suspension at the dose of 1 × 10^8 CFU/mL, 5 μL for each mouse [19]. And the control group was injected with the same volume of normal saline. […] After 5 days, mice in each group were administered with the corresponding drugs mentioned above, continuously for 14 days. And the time and frequency of administration are described above. The mice were then anesthetized with ether for 24 h after the last administration. Next, the brain tissue was promptly removed for H&E staining and colonization detection of Cryptococcus neoformans. The brain tissue was homogenized with normal saline at a ratio of 1 : 1 (g : v). And then, 100 μL homogenate suspension was gradient diluted to concentrations of 1, 0.1, 0.01, and 0.001 g/mL. At each concentration, 10 μL of brain tissue suspension was uniformly applied to yeast extract peptone dextrose medium and cultured in a 30°C incubator for 48 h [22]. Then, the colony count of cryptococcus neoformans was performed.

[8] = 5 μM zosuquidar, 5 μM Ko143 or 1 mM elacridar + 2.16 μM AMPB

SMILES: C[C@@H]1[C@H](O)[C@@H](C)/C=C/C=C/C=C/C=C/C=C/C=C/C=C/[C@H](O[C@@H]2O[C@H](C)[C@@H](O)[C@H](N)[C@@H]2O)C[C@@H]2O[C@](O)(C[C@@H](O)C[C@@H](O)[C@H](O)CC[C@@H](O)C[C@@H](O)CC(=O)O[C@H]1C)C[C@H](O)[C@H]2C(=O)O [AMPB, amphotericin B]
plasma protein binding rate [1]: 90%

SMILES: COc1ccc2c3c([nH]c2c1)[C@H](CC(C)C)N1C(=O)[C@H](CCC(=O)OC(C)(C)C)NC(=O)[C@@H]1C3 [Ko143]
effect on AMPB uptake by BCECs [2, 8]: no significant effect
AMPB brain tissue/plasma drug ratio [3]: no effect
brain tissue concentration of AMPB [3]: no effect
plasma drug concentration of AMPB [3]: no effect

effect on plasma concentration of free AMPB (ultrafiltration) ([5]; POS 4 μg/mL + AMPB 2.0 μg/mL in plasma): potentially increase
effect on plasma concentration of free AMPB (ultrafiltration) ([5]; POS 8 μg/mL + AMPB 2.0 μg/mL in plasma): potentially increase
effect on plasma free AMPB (balanced dialysis) ([6]; POS 4 μg/mL + AMPB 0.5 μg/mL in mouse plasma, p < 0.05 vs AMPB group): prominently elevate
effect on plasma free AMPB (balanced dialysis) ([6]; POS 8 μg/mL + AMPB 0.5 μg/mL in mouse plasma, p < 0.01 vs AMPB group): prominently elevate
SMILES: CC[C@@H]([C@H](C)O)n1ncn(-c2ccc(N3CCN(c4ccc(OC[C@@H]5CO[C@@](Cn6cncn6)(c6ccc(F)cc6F)C5)cc4)CC3)cc2)c1=O [POS, posaconazole]
effect on AMPB uptake by BCECs ([2]; POS 2.85, 5.71 and 11.42 μM + 2.16 μM AMPB): no significant effect
plasma protein binding rate [1]: 98%
cortical pathological injuries (inflammatory cell infiltration, bleeding), H&E staining [4]: improve the above pathological injuries
number of cryptococcus neoformans in the brain (colony culture) [7]: evidently inhibit

SMILES: COc1cc2c(cc1OC)CN(CCc1ccc(NC(=O)c3cccc4c(=O)c5cccc(OC)c5[nH]c34)cc1)CC2 [elacridar]
effect on AMPB uptake by BCECs [2, 8]: no significant effect

SMILES: O[C@@H](COc1cccc2ncccc12)CN1CCN([C@@H]2c3ccccc3[C@@H]3[C@H](c4ccccc42)C3(F)F)CC1 [zosuquidar]
effect on AMPB uptake by BCECs [2, 8]: no significant effect
